Data from US20220257552A1, “METHODS OF PRESCREENING AND TREATING BREAST CANCERS WITH SELECTIVE ANDROGEN RECEPTOR MODULATORS” (priority 2021, published 2022).

Assays:
[1] = test system: MCF-7-AR cells; assay: MCF-7-AR xenograft in ovariectomized, estradiol-supplemented mice; format: in vivo
Experimental: Once tumors reached 100-200 mm^3, the animals were randomized and treated with vehicle or 30 mg/kg per day of Formula VIII. Tumor volumes and body weights were measured thrice weekly. At the end of 5 weeks of treatment, the animals were sacrificed, tumors weighed and stored for RNA and protein isolation and histology. * significance at P<0.05.
All animal protocols were approved by The University of Tennessee Health Science Center (UTHSC) Institutional Animal Care and Use Research Committee. Xenograft experiments were performed as previously published (Narayanan et al. (2014) PLoS One 9, e103202). Briefly, 3 million MCF-7 cells were suspended in 0.05 ml MEM+10% FBS and 0.05 ml Matrigel/nude mouse and were injected subcutaneously. Once the tumor size reached 100-200 mm^3, the animals were randomized and treated orally with the indicated drugs formulated in DMSO:PEG-300 (15:85). HCI-7, HCI-9, and HCI-13 PDXs were gifts kindly donated by Dr. Alana Welm (Huntsman Cancer Institute, Salt Lake City, Utah). HCI PDX tumor fragments (1 mm^3) were surgically implanted under the mammary fat pad in female NOD SCID Gamma (NSG) mice. Tumor volume was measured twice weekly for MCF-7 xenograft and once or twice weekly for HCI PDXs. At the end of the study, animals were sacrificed and tumors were excised, weighed, and stored for various analyses.

[2] = test system: MCF-7-AR tumors; assay: Affymetrix microarray of MCF-7-AR tumors; format: in vivo, mice; conditions: Table 9
Experimental: Microarray Analysis was performed on RNA from MDA-MB-231-AR and MCF-7-AR tumors in order to identify and compare changes in gene expression in ER-negative (MDA-MB-231-AR; triple negative) an ER-positive (MCF-7-AR; triple positive) breast cancer tumors treated with a compound of Formula VIII (30 mg/kg/day p.o. for 4 weeks). Affymetrix analysis of the xenografts was done on pooled samples of the xenografts. The analysis included ˜70,000 sequences with ˜30,000 genes and variations thereof represented, as well as microRNA's. RNA was isolated and expression of genes was evaluated using microarray (Affymetrix Human Gene ST 2.0 array). Expression of genes in compound of Formula VIII-treated samples was compared with the expression in vehicle-treated samples.

[3] = test system: MCF-7-AR tumors; assay: Phospho MAPK array of MCF-7-AR tumors; design: species or system mice; conditions: mouse, in vivo
Experimental: Protein from MCF-7-AR tumors that were treated with vehicle or compound of Formula VIII were extracted and incubated with phospho MAPK array to determine the effect of compound of Formula VIII on phosphorylation of various kinases.

[4] = test system: MCF-7 cells expressing AR; assay: MCF-7-AR cell viability (SRB); format: cell-based; conditions: 6 days
Experimental: After 6 days of treatment, cells were harvested, and the number of cells was counted. […] Medium was changed after 3 days and re-treated. Cells were fixed after 6 days of treatment and the cell viability was measured by SRB assay. […] Medium was changed, and the cells were re-treated on days 4 and 7. Medium was collected, pooled from triplicates, and stored in −80° C. After 10 days of treatment, cells were fixed, and cell viability was measured using SRB. MCF-7 cells stably transfected with GFP (MCF-7-GFP) were plated in growth medium. Twenty-four hours after plating, cells were fed with the conditioned medium obtained from patient-derived fibroblasts as indicated above. Cells were fed for 10 days with conditioned medium, with medium changed on days 4 and 7. After 10 days of treatment, cells were fixed, and the viability was measured by SRB assay. […] AR-positive, but ER-negative HCI-9 PDX was surgically implanted as 1 mm^3 fragments under the mammary fat pad in NSG mice (n=8-10/group). […] Tumor volume was measured thrice weekly. […] ER-α from HCI-13 was cloned into pCR3.1 vector. […] Values are expressed as average±S.E. from n=3-4/data point.
Cells were plated at varying densities in growth medium in 96 well plates. Cells were treated as indicated in the figures and viability measured using sulforhodamine B (SRB) or the number of cells counted using Coulter counter.

[5] = test system: HCC-38 triple negative breast cancer cells; assay: SRB cell viability, HCC-38 cells infected with AR adenovirus; format: cell-based; conditions: 3 days
Experimental: The SRB assay was used to determine cell number during cytotoxocity experiments. The following protocol was used: • 1. Cells were detached with 0.25% trypsin. • 2. Experimental cultures were cultured in 96-well microtiter plates (200 μL growth medium per well; 1,000-200,000 cells per well). • 3. Cultures were fixed with 50 μL 50% TCA (4° C.). (see cell fixation protocol for details). • 4. Fixed cells were stained with 50 μL 0.4% (wt/vol) SRB in 1% acetic acid for 10 minutes. • 5. SRB was removed and the cultures were quickly* rinsed 5 times with 1% acetic acid to remove unbound dye.** • 6. Cultures were air-dried overnight until there was no visible moisture. • 7. The cellular protein-bound SRB was dissolved with 200 μL unbuffered Tris base (10 mM, pH 10.5) for 30 minutes on a rocking platform shaker. • 8. Absorbance was read at 540 nm. * quickly performing rinsing process was to prevent desorption of protein-bound SRB ** completely removed residual wash solution by sharply flicking plates over sink.
The following protocol was used for fixing cells: • a. 50 μL of 50% TCA (4° C.) was gently layered on the top of growth medium in each well to make a final TCA concentration of 10%. • b. Cultures were incubated at 4° C. for 1 hour. • c. Cultures were washed 5 times with tap water to remove TCA, growth medium, low-molecular-weight metabolites, and serum protein. • d. […]

SMILES	growth inhibition of xenografts ([1]; 30 mg/kg per day, 5 weeks)	uterus weight ([1]; estrogen supplemented animals)	AHR expression [2]	CDT1 expression [2]	Catalase expression [2]	EHMT1 expression [2]	ER-α expression [2]	ERCC2 expression [2]	FACGD2 expression [2]	IRS1 expression [2]	KLK3 expression [2]	MTR expression [2]	NPAS2 expression [2]	PON2 expression [2]	PR expression [2]	TIMP3 expression [2]	XRCC1 expression [2]	JNK phosphorylation [3]	proliferation / cell viability [4]	cell growth [5]
C[C@](O)(COc1ccc(C#N)cc1)C(=O)Nc1ccc(C#N)c(Cl)c1 [Formula VIII, (S)—N-(3-chloro-4-cyanophenyl)-3-(4-cyanophenoxy)-2-hydroxy-2-methylpropanamide]	greater than 50%	inhibited	Increased	Decreased	Increased	Increased	Decreased	Decreased	Decreased	Decreased	Increased	Decreased	Increased	Increased	Decreased	Increased	Decreased	upregulated	–	–
C[C@](O)(COc1ccc(C#N)cc1)C(=O)Nc1ccc(C#N)c(C(F)(F)F)c1 [Formula IX, (S)—N-(4-Cyano-3-(trifluoromethyl)phenyl)-3-(4-cyanophenoxy)-2-hydroxy-2-methylpropanamide]	–	–	–	–	–	–	–	–	–	–	–	–	–	–	–	–	–	–	inhibited proliferation	inhibited
